Test results from patent publication US20090082423A1, “SOLUBLE EPOXIDE HYDROLASE INHIBITORS” (Arete Therapeutics, Inc., priority 2007, published 2009).

What was measured:
[1] = tested on: soluble epoxide hydrolase (sEH); experiment: Fluorescent assay for mouse and human soluble epoxide hydrolase (CMNPC substrate); type: biochemical; conditions: Conc 200 nM; recombinant sEH, CMNPC 5 μM, 30° C.; mouse or human enzyme not stated
Source text: Fluorescent Assay for Mouse and Human Soluble Epoxide Hydrolase
Recombinant mouse sEH (MsEH) and human sEH (HsEH) were produced in a baculovirus expression system as previously reported. Grant et al., J. Biol. Chem., 268:17628-17633 (1993); Beetham et al., Arch. Biochem. Biophys., 305:197-201 (1993). The expressed proteins were purified from cell lysate by affinity chromatography. Wixtrom et al., Anal. Biochem., 169:71-80 (1988). Protein concentration was quantified using the Pierce BCA assay using bovine serum albumin as the calibrating standard. The preparations were at least 97% pure as judged by SDS-PAGE and scanning densitometry. They contained no detectable esterase or glutathione transferase activity which can interfere with the assay. The assay was also evaluated with similar results in crude cell lysates or homogenate of tissues.
The IC50s for each inhibitor were according to the following procedure:
Cyano(2-methoxynaphthalen-6-yl)methyl (3-phenyloxiran-2-yl)methyl carbonate (CMNPC; Jones P. D. et. al.; Analytical Biochemistry 2005; 343: pp. 66-75)
Bis/Tris HCl 25 mM pH 7.0 containing 0.1 mg/mL of BSA (buffer A)
CMNPC at 0.25 mM in DMSO.
Mother solution of enzyme in buffer A (Mouse sEH at 6 μg/mL and Human sEH at 5 μg/mL).
Inhibitor dissolved in DMSO at the appropriate concentration.
In a black 96 well plate, fill all the wells with 150 μL of buffer A.
Add 2 μL of DMSO in well A2 and A3, and then add 2 μL of inhibitor solution in A1 and A4 through A12.
Add 150 μL of buffer A in row A, then mix several time and transfer 150 μL to row B. Repeat this operation up to row H. The 150 μL removed from row H go to the trash.
Add 20 μL of buffer A in column 1 and 2, then add 20 μL of enzyme solution to column 3 to 12.
Incubate the plate for 5 minutes in the plate reader at 30° C.
During incubation prepare the working solution of substrate by mixing 3.68 mL of buffer A (4×0.920 mL) with 266 μL (2×133 μL) of substrate solution).
At t=0, add 30 μL of working substrate solution with multi-channel pipette labeled “Briggs 303” and start the reading ([S]final: 5 μM).
Read with ex: 330 nm (20 nm) and em: 465 nm (20 nm) every 30 second for 10 minutes. The velocities are used to analyze and calculate the IC50s.

Compound	% Inh (percent inhibition) [1] [%]	melting point [°C]
O=C(NC1CCOCC1)NC12CC3CC(CC(C3)C1)C2 [Compound 8, 1-adamantan-1-yl-3-(tetrahydro-2H-pyran-4-yl)urea]	90	239 to 242
CC1(C)CC(NC(=O)Nc2ccc(C(F)(F)F)cc2)CC(C)(C)C1=O [Compound 5, 1-(3,3,5,5-tetramethyl-4-oxocyclohexyl)-3-(4-(trifluoromethyl)phenyl)urea]	98	152 to 153
O=C(NCC1CCOCC1)NC12CC3CC(CC(C3)C1)C2 [Compound 1, 1-adamantan-1-yl-3-((tetrahydro-2H-pyran-4-yl)methyl)urea]	89	196 to 198
O=C(NC1CCS(=O)(=O)CC1)NC12CC3CC(CC(C3)C1)C2 [Compound 7, 1-adamantan-1-yl-3-(1,1-dioxo-tetrahydro-2H-thiopyran-4-yl)urea]	82	244 to 246

More lines, now with the values ahead:

% Inh (percent inhibition) [1] [%]	melting point [°C]	Compound
92	196 to 198	O=C(Nc1ccc(C(F)(F)F)cc1)NC1CCS(=O)(=O)CC1 [Compound 4, 1-(1,1-dioxo-tetrahydro-2H-thiopyran-4-yl)-3-(4-(trifluoromethyl)phenyl)urea]
91	196 to 198	O=C(Nc1ccc(C(F)(F)F)cc1)NC1CCOCC1 [Compound 3, 1-(tetrahydro-2H-pyran-4-yl)-3-(4-(trifluoromethyl)phenyl)urea]
100	234 to 238	CC1(C)CC(NC(=O)NC23CC4CC(CC(C4)C2)C3)CC(C)(C)C1=O [Compound 6, 1-adamantan-1-yl-3-(3,3,5,5-tetramethyl-4-oxocyclohexyl)urea]
70	148 to 149	O=C(NCC1CCOCC1)Nc1ccc(C(F)(F)F)cc1 [Compound 2, 1-((tetrahydro-2H-pyran-4-yl)methyl)-3-(4-(trifluoromethyl)phenyl)urea]
